Source: patent publication US4316889A, “Novel peptidyl-arginine aldehyde derivatives and process for the preparation thereof” (Richter Gedeon Vegyeszeti Gyar Rt., priority 1979, dated 1982)
Square brackets hold non-standard residues; d marks the D form. Peptide text beside a SMILES is read from it. * marks the point of attachment. d(aIle) = CC[C@H](C)[C@@H](N)C(=O)O; Bz = O=C(c1ccccc1)*

Tests used:
thrombin [1] = target: thrombin (Homo sapiens, UniProt P00734); conditions: Hungarian Patent No. 169,870; cited from earlier work
[2] = target: T1, US Standard Human Thrombin (Homo sapiens, UniProt P00734); test: Antithrombin activity: amount of drug for tenfold increase of the thrombin-time of fibrinogen; type: biochemical; conditions: for Amount of drug required for tenfold increase of thrombin-time following dissolution of peptide, 0 hour: 0 hour after dissolution in TRIS/HCl buffer pH=7.4, bovine fibrinogen, thrombin 5 U/ml; for relative activity (ra), 20 hours: 20 hours in TRIS/HCl buffer, relative to H-D-Phe-Pro-Arg(COOH)-H at 0 hour = 100; for Amount of drug required for tenfold increase of thrombin-time following dissolution of peptide, 20 hours: 20 hours standing in TRIS/HCl buffer pH=7.4; for change of antithrombin potency upon standing in solution: TRIS/HCl buffer, pH=7.4
T1 construct: US Standard Human Thrombin; purchased NIH, Bethesda, Maryland, USA
Procedure: Antithrombin activity is defined by the amount of drug required for a tenfold increase of the thrombin-time of fibrinogen (thrombintime: time of clotting induced by thrombin).
Antithrombin activities were assayed in the following system:
0.5 percent bovine fibrinogen (0.2 ml). in 0.9 percent sodium chloride solution, peptide in TRIS/HCl buffer (0.1 ml., pH=7.4), and US Standard Human Thrombin (0.1 ml.) (NIH, Bethesda, Maryland, USA; 5 U/ml.). The clotting time of the system devoid of peptide is 15 seconds.

thrombin-time = test: In vivo antithrombin activity after oral administration to dogs, measured in a Thromboelastograph; set-up: species or system dog; conditions: 50 mg./kg., for a period of two hours
Text: (§1) This effect is substantial not only at intravenous, intramuscular and subcutaneous but also at oral administration.

papain = target: T2, papain (Carica papaya, UniProt P00784); conditions: literature (Kawamura et al.; Umezawa); cited from earlier work
T2 sequence (P00784 134-345): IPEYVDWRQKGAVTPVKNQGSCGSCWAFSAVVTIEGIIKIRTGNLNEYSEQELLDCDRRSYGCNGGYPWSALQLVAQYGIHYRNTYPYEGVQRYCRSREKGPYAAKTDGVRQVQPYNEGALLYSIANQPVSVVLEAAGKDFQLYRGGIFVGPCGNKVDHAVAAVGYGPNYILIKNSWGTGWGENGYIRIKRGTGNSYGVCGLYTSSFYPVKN

trypsin = conditions: literature (Kawamura et al.; Umezawa); cited from earlier work
plasmin = plasmin (Homo sapiens, UniProt P00747); conditions: literature (Kawamura et al.; Umezawa); cited from earlier work
Chain of plasmin (P00747 581-810 limits assumed, species assumed): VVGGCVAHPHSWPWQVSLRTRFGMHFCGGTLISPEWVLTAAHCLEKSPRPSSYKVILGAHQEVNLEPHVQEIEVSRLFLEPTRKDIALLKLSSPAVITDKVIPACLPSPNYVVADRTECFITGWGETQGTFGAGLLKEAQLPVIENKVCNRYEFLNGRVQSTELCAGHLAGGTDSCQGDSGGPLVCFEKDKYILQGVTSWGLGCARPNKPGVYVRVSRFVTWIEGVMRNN
Chain of plasmin (P00747 97-580 partner limits assumed, species assumed): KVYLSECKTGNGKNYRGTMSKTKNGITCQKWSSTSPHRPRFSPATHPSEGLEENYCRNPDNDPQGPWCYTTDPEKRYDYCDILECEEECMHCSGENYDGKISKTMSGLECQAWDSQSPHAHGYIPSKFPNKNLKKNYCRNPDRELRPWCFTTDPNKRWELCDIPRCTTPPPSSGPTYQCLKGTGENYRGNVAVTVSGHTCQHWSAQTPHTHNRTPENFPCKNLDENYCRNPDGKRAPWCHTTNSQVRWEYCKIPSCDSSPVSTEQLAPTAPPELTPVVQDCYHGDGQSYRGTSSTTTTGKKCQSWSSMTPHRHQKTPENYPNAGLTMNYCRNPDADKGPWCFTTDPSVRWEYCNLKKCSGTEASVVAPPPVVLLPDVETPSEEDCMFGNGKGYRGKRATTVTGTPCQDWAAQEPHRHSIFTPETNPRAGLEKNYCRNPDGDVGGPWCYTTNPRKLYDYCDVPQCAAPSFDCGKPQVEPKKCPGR

thrombin [3] = test: In vivo trials of antithrombin activity on five species; conditions: mouse, rat, rabbit, dog, monkey; intravenous, intramuscular, subcutaneous and oral administration
Text: as §1

Compound	antithrombin activity (literature) (thrombin [1])	Amount of drug required for tenfold increase of thrombin-time following dissolution of peptide, 0 hour [2] [µg/mL]	relative activity (ra), 20 hours [2]	Amount of drug required for tenfold increase of thrombin-time following dissolution of peptide, 20 hours [2] [µg/mL]	change of antithrombin potency upon standing in solution [2]	increase of thrombin-time in vivo (thrombin-time)	inhibition of papain (papain)	inhibition of trypsin (trypsin)	inhibition of plasmin (plasmin)	other results
CC(=O)O.N=C(N)NCCC[C@@H](C=O)NC(=O)[C@@H]1CCCN1C(=O)[C@H](N)Cc1ccccc1 [H--D-Phe-- Pro--Arg--H . 2 CH3 COOH, D-phenylalanyl-L-prolyl-L-arginine aldehyde acetate]	marked antithrombin activity	0.37 to 1.25	4	6.2	reduced	practically no influence				
Cl.N=C(N)NCCC[C@@H](C=O)NC(=O)[C@@H]1CCCN1C(=O)[C@H](N)Cc1ccccc1 [H--D-Phe-- Pro--Arg--H . 2HCl, D-phenylalanyl-L-prolyl-L-arginine aldehyde hydrochloride]		0.35 to 0.95	5	6.0	reduced	practically no influence				
CC(=O)N[C@@H](CC(C)C)C(=O)N[C@@H](CC(C)C)C(=O)N[C@H](C=O)CCCNC(=N)N.Cl [acetyl-L-leucyl-L-leucyl-arginine aldehyde hydrochloride]							capable to inhibit	capable to inhibit	capable to inhibit	
CC[C@H](C)[C@@H](NC(=O)c1ccccc1)C(=O)N1CCC[C@H]1C(=O)N[C@H](C=O)CCCNC(=N)N.Cc1ccc(S(=O)(=O)O)cc1 [benzoyl-D-allo-isoleucyl-L-prolyl-L-arginine aldehyde p-toluenesulfonate] (Bz-[d(aIle)]-Pro-Arg-aldehyde)	marked antithrombin activity									
CCC(=O)N[C@@H](CC(C)C)C(=O)N[C@@H](CC(C)C)C(=O)N[C@H](C=O)CCCNC(=N)N.Cl [propionyl-L-leucyl-L-leucyl-arginine aldehyde hydrochloride]							capable to inhibit	capable to inhibit	capable to inhibit	
D-Phenylalanyl-L-prolyl-N^G -carboxyl-L-arginine aldehyde [H--D-Phe-- Pro--Arg(COOH)--H]		0.275	92	0.300		four to sixfold				relative activity (ra), 0 hour ([2]; 0 hour, activity of H-D-Phe-Pro-Arg(COOH)-H arbitrarily taken as 100): 100; antithrombin (enzyme inhibitory) activity compared with the free tripeptide aldehyde salt of corresponding sequence ([2]; thrombin-fibrinogen reaction, versus H-D-Phe-Pro-Arg-H hydrochloride or acetate): higher; in vivo antithrombin effect (thrombin [3]): substantial
